Literature values in patent US7148007B2, “Method for evaluating immunotoxicity of test substance” (priority 2001, dated 2006).

Settings: toxicity level based on that of 2,3,7,8-TCDD being 1; WHO 1998 TEF scheme

`Clc1cc2c(cc1Cl)Oc1cc(Cl)c(Cl)cc1O2` [2,3,7,8-TCDD, 2,3,7,8-Tetraorodibenzo-p-dioxin] and `Clc1cc2c(cc1Cl)Oc1c(cc(Cl)c(Cl)c1Cl)O2` [1,2,3,7,8-PeCDD, 1,2,3,7,8-Pentachlorodibnzo-p-dioxin] are the same in WHO-TEF: 1 for the first, 1 for the second.

`Clc1cc2c(c(Cl)c1Cl)Oc1c(cc(Cl)c(Cl)c1Cl)O2` [1,2,3,7,8,9-HxCDD, 1,2,3,7,8,9-Hexachlorodibenzo-p-dioxin] and `Clc1cc2c(c(Cl)c1Cl)Oc1cc(Cl)c(Cl)c(Cl)c1O2` [1,2,3,6,7,8-HxCDD] are the same in WHO-TEF: 0.1 for the first, 0.1 for the second.

Going from `Clc1c(Cl)c(Cl)c2c(c1Cl)Oc1c(Cl)c(Cl)c(Cl)c(Cl)c1O2` [OCDD, 1,2,3,4,5,6,7,8,9-Octachlorodibenzo-p-dioxin] to `Clc1cc2c(cc1Cl)Oc1c(Cl)c(Cl)c(Cl)c(Cl)c1O2` [1,2,3,4,7,8-HxCDD, 1,2,3,4,7,8-Hexachlorodibenzo-p-dioxin], the WHO-TEF rises from 0.0001 to 0.1.
